Where “and” joins values, the source holds several entries; their conditions need not be identical. Equal entries are not always repeated. Where two headings read alike, the source gives them in different places. Residues, ends and D or L forms follow the SMILES beside them. *: point of attachment. FITC = O=C1OC2(c3ccc(O)cc3Oc3cc(O)ccc32)c2ccc(NC(=S)*)cc21
Experiments:
[1] = system: bEnd.3 mouse brain endothelial cells
Procedure: The bEnd.3 (mouse brain endothelial cell) cell line, purchased from Bioresource Collection and Research Center (BCRC, Taiwan), was used in this study. Prior to experiments, the cells were cultured in Dulbecco’s modified Eagle’s medium (DMEM; HyClone, cat. #SH30003.02) with 10% fetal bovine serum (Gibco, cat. #10437028) and 1% penicillin-streptomycin (Gibco, cat. #15140112), and were passaged every 2–3 days with 0.25% trypsin-EDTA (Gibco, cat. #25200056).
Cellular metabolic activity was measured by MTT (thiazolyl blue tetrazolium bromide) assay 24 h after treatment by normothermia (37°C), hypothermia (4°C), sodium azide (NaN3)/2-deoxy-D-glucose (2-DG), cytochalasin D, 5-(N-ethyl-N-isopropyl)-amiloride (EIPA), or methyl-beta-cyclodextrin (MβCD). In brief, MTT assay was performed with 2000 cells in culture by first replacing the cell culture medium with medium containing 0.5 mg/ml MTT (Alfa Aesar, cat. #L11939). After a 4-h incubation period to allow for MTT metabolism, the MTT-containing medium was replaced with 100 μl of dimethyl sulfoxide (DMSO; JT Baker), and the culture plate was placed on a shaker for 10 min to allow for dissolution of the violet crystal metabolites. Thereafter, the optical density of the metabolite was measured at 570 nm by an ELISA reader. The optical density of the metabolite in the hypothermia and drug treatment groups was expressed as percentage relative to the optical density of the metabolite in the normothermia and control groups, respectively.

[2] = system: monolayer of bEnd.3 mouse brain endothelial cells; assay: Permeability across a monolayer of brain endothelial cells (in vitro BBB model); format: in vitro ADME; design: Diffusion of FITC-TAT across bEnd.3 monolayer / Diffusion of FITC-linked peptide across bEnd.3 monolayer / Diffusion of FITC-TAT across bEnd.3 monolayer, FITC-TAT + TAT / Diffusion of FITC-TAT across bEnd.3 monolayer, FITC-TAT + TATK/R>A: unit not given here; conditions: for Rate of diffusion across the monolayer compared with FITC-TAT: bEnd.3 monolayer; for Diffusion of FITC-linked peptide across bEnd.3 monolayer: fluorescence spectrophotometry
[3] = peptide 1 μM (Fig 3A), diffusion time 0.1 h, individual cultures n = 4
[4] = peptide 1 μM (Fig 3A), diffusion time 4 h, individual cultures n = 4
[5] = peptide 1 μM (Fig 3A), diffusion time 12 h, individual cultures n = 4
[6] = peptide 1 μM (Fig 3A), diffusion time 24 h, individual cultures n = 4
[7] = peptide 3 μM (Fig 3B), diffusion time 0.1 h, individual cultures n = 4
[8] = peptide 3 μM (Fig 3B), diffusion time 4 h, individual cultures n = 4
[9] = peptide 3 μM (Fig 3B), diffusion time 12 h, individual cultures n = 4
[10] = peptide 3 μM (Fig 3B), diffusion time 24 h, individual cultures n = 4
[11] = peptide 10 μM (Fig 3C), diffusion time 0.1 h, individual cultures n = 4
[12] = peptide 10 μM (Fig 3C), diffusion time 4 h, individual cultures n = 4
[13] = peptide 10 μM (Fig 3C), diffusion time 12 h, individual cultures n = 4
[14] = peptide 10 μM (Fig 3C), diffusion time 24 h, individual cultures n = 4

Row | Molecule | Effect on cellular metabolic activity, MTT [1] | Rate of diffusion across the monolayer compared with FITC-TAT ([2]; 1 μM concentration, Fig 3A) | Rate of diffusion across the monolayer compared with FITC-TAT ([2]; 3 μM concentration, Fig 3B) | Rate of diffusion across the monolayer compared with FITC-TAT ([2]; 10 μM concentration, Fig 3C) | Diffusion of FITC-linked peptide across bEnd.3 monolayer [2, 3] | Diffusion of FITC-linked peptide across bEnd.3 monolayer [2, 4] | Diffusion of FITC-linked peptide across bEnd.3 monolayer [2, 5] | Diffusion of FITC-linked peptide across bEnd.3 monolayer [2, 6] | Diffusion of FITC-linked peptide across bEnd.3 monolayer [2, 7] | Diffusion of FITC-linked peptide across bEnd.3 monolayer [2, 8] | Diffusion of FITC-linked peptide across bEnd.3 monolayer [2, 9] | Diffusion of FITC-linked peptide across bEnd.3 monolayer [2, 10] | Diffusion of FITC-linked peptide across bEnd.3 monolayer [2, 11] | Diffusion of FITC-linked peptide across bEnd.3 monolayer [2, 12] | Diffusion of FITC-linked peptide across bEnd.3 monolayer [2, 13] | Diffusion of FITC-linked peptide across bEnd.3 monolayer [2, 14] | also measured
1 | CCN(c1nc(N)c(C(=O)N=C(N)N)nc1Cl)C(C)C [EIPA, 5-(N-ethyl-N-isopropyl)-amiloride] | markedly decreased cellular metabolic activity |  |  |  |  |  |  |  |  |  |  |  |  |  |  |  | 
2 | C[C@H](NC(=O)[C@H](C)NC(=O)[C@H](C)NC(=O)[C@H](CCC(N)=O)NC(=O)[C@H](C)NC(=O)[C@H](C)NC(=O)[C@H](C)NC(=O)[C@H](C)NC(=O)[C@H](C)NC(=O)CNC(=O)[C@H](Cc1ccc(O)cc1)NC(=S)Nc1ccc2c(c1)C(=O)OC21c2ccc(O)cc2Oc2cc(O)ccc21)C(=O)O [FITC-TATK/R>A] ({FITC}-YGAAAAAQAAA-OH) |  | much lower rate than FITC-TAT | much lower rate than FITC-TAT | much lower rate than FITC-TAT | 16.9505 and 16.508 and 16.5507 and 15.9581 | 28.9506 and 32.0869 and 31.9736 and 31.2514 | 42.2787 and 47.1236 and 45.2026 and 46.9823 | 65.8175 and 68.5893 and 66.6226 and 69.1937 | 6.156 and 4.865 and 2.668 and 3.238 | 19.8822 and 11.958 and 7.983 and 9.049 | 39.1651 and 26.1724 and 19.7108 and 16.4957 | 49.6596 and 34.462 and 23.6779 and 22.9503 | 1.811 and 1.623 and 2.572 and 1.851 | 18.7947 and 19.4252 and 20.5729 and 16.0903 | 38.7338 and 38.9661 and 39.2385 and 32.797 | 65.0223 and 61.702 and 66.1075 and 57.2466 | Diffusion of FITC-linked peptide across bEnd.3 monolayer ([2]; peptide 10 μM alone (Fig 3D), diffusion time 0.1 h, individual cultures n = 3): 2.221 and 2.035 and 1.973; Diffusion of FITC-linked peptide across bEnd.3 monolayer ([2]; peptide 10 μM alone (Fig 3D), diffusion time 12 h, individual cultures n = 3): 29.1435 and 26.4948 and 29.3071; Diffusion of FITC-linked peptide across bEnd.3 monolayer ([2]; peptide 10 μM alone (Fig 3D), diffusion time 24 h, individual cultures n = 3): 54.4105 and 51.9054 and 56.2316
3 | N=C(N)NCCC[C@H](NC(=O)[C@H](CCCNC(=N)N)NC(=O)[C@H](CCCCN)NC(=O)[C@H](Cc1ccc(O)cc1)NC(=O)[C@H](CCCNC(=N)N)NC(=O)[C@H](CCCNC(=N)N)NC(=O)[C@H](CCCNC(=N)N)NC(=O)[C@H](CCCNC(=N)N)NC(=O)[C@H](CCCCN)NC(=S)Nc1ccc2c(c1)C(=O)OC21c2ccc(O)cc2Oc2cc(O)ccc21)C(=O)N[C@@H](CCC(N)=O)C(=O)NCC(=O)O [FITC-TATscrambled] ({FITC}-KRRRRYKRRQG-OH) |  | marginally higher rate than FITC-TAT | rate equal to that of FITC-TAT | marginally lower than FITC-TAT | 16.6121 and 16.5353 and 16.6054 and 15.9771 | 37.5047 and 37.4667 and 38.2192 and 36.5367 | 71.5027 and 70.7894 and 73.1753 and 67.019 | 112.675 and 114.406 and 111.607 and 110.916 | 5.913 and 5.203 | 27.0594 (2×) and 32.066 and 20.6139 | 76.2224 (2×) and 56.9939 and 73.6994 | 111.452 (2×) and 91.4132 and 89.6289 | 1.995 and 1.727 and 1.576 and 1.501 | 22.9531 and 16.5248 and 15.9626 and 15.9604 | 52.8508 and 41.023 and 42.3549 and 44.9043 | 105.008 and 91.7182 and 94.732 and 94.0226 | 
4 | C=C1[C@@H](C)[C@H]2[C@H](Cc3ccccc3)NC(=O)[C@]23[C@H](OC(C)=O)/C=C/[C@@](C)(O)C(=O)[C@@H](C)C/C=C/[C@H]3[C@@H]1O [cytochalasin D] |  |  |  |  |  |  |  |  |  |  |  |  |  |  |  |  | Effect on cellular metabolic activity, MTT ([1]; bEnd.3, pre-treatment for 30 min followed by washout, Fig 4A): had no effect on cellular metabolic activity; Effect on cellular metabolic activity, MTT ([1]; bEnd.3, sustained treatment for 24 h, Fig 4A): increased cellular metabolic activity in a concentration-dependent manner
5 | methyl-beta-cyclodextrin [MβCD] | markedly decreased cellular metabolic activity |  |  |  |  |  |  |  |  |  |  |  |  |  |  |  | 

Source: publication PMC10566733 (PLOS ONE, 2023)
